Values quoted from earlier work as cited in patent publication US9808427B2, “Swallowable N-acetylcysteine tablets” (ZAMBON S.P.A., priority 2013, dated 2017).

What was measured:
[1] = 1200 mg per day (2 tablets of 600 mg)

time to achieve pharmacologically active concentrations in pulmonary tissue and bronchial secretions (after taking the drug): approximately 3 hours
elimination of NAC and its metabolites (in vivo): essentially via the kidneys
absorption in the gastrointestinal tract (oral administration, man): quickly and completely absorbed
Structure (SMILES): CC(=O)N[C@@H](CS)C(=O)O [NAC, N-acetylcysteine]
efficacy and safety in long-term treatment of COPD [1]: effective and safe
